The subject of one data set is female BALB/C mice. Kind of data set: Mouse in vivo imaging of Fluc-mRNA LNP formulations. Set-up: average radiation intensity (mRNA expression): unit not given here. As to conditions: 10 μg Fluc-mRNA LNP intramuscularly. In a few lines:
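Female BALB/C mice (4–6 weeks, 17–19 g) received LNP carrying 10 μg Fluc-mRNA intramuscularly. Imaging substrate given intraperitoneally at 6 h, 24 h, 48 h and 7 d; after 5 min free movement, average radiance read by IVIS Spectrum imaging.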

Data set [1] concerns 293T cells. Kind of data set: Cell survival rate assay (CCK-8). Format: cell-based. As to conditions: LNP containing 1.5 μg Fluc-mRNA, 24 hours, CCK-8. The gist of the method: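 293T cells seeded at 10,000 per well and grown overnight, then exposed for 24 h to LNPs (cationic/neutral/structured/PEG lipids 49:10:39.5:1.5) carrying 1.5 μg Fluc-mRNA, or Lipofectamine 3000. Viability read by CCK-8, 1 h incubation, absorbance at 450 nm.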

Data set [2] deals with 293T cells. Nature of the data set: Fluorescence detection of Fluc-mRNA (cell transfection efficiency of LNP formulations). Format: cell-based. The gist of the method:
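293T cells at 10,000 per well, adhered overnight, then given LNPs carrying 0.3 μg Fluc-mRNA (cationic:neutral:structured:polymer-conjugated lipid 49:10:39.5:1.5 molar). After 24 h, luciferase signal read with luciferase kit reagents on an IVIS imaging system as transfection efficiency.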

Data set [3] can be described thus: Encapsulation rate, drug loading concentration and total RNA concentration detection (RiboGreen). Format: physicochemical. The conditions noted are these: LNP formulation of the named lipid.
A short description of data set [4]: Particle size and polydispersity index (PDI) of nanolipid particles, dynamic light scattering. Format: physicochemical. As to conditions: LNP formulation prepared from the named cationic lipid, 25° C. On the procedure:
The particle size and polydispersity index (PDI) were determined by dynamic light scattering method using a Malvern laser particle size analyzer. 10 μL of liposome solution was diluted to 1 mL with RNase-free deionized water and added to a sample pool. Each sample was measured three times. The measurement conditions were: 90° scattering angle, 25° C.

SMILES strings stand for the structures.

Take `CCCCCCCCC(CCCCCCCC)COC(=O)CCCCCN(CCCCCC(=O)OCC(CCCCCCCC)CCCCCCCC)CCN(C)CCNC` [YK-223]: the “average radiation intensity (mRNA expression)” value (shortened to “average radiation intensity”) in the data set on female BALB/C mice (6 h) amounted to 10355. The “average radiation intensity” value in the data set with female BALB/C mice (24 h) worked out at 1786. Moreover, the “average radiation intensity” value in the data set on female BALB/C mice (48 h) was found to be 678. Moreover, the “average radiation intensity” value in the data set with female BALB/C mice (7 d) was found to be 440. The Cell survival rate with 293T cells [1] is 36.64%. Also, in the data set with 293T cells [2] (LNP containing 0.3 μg Fluc-mRNA, 24 hours), the “Relative light unit (RLU)” value is 75012 RLU. For the same compound, the “Multiples of values that equivalent to YK-201” value in the data set with 293T cells [2] (RLU of YK-201 / RLU of the named lipid) is 379.71. For the same compound, in the data set on 293T cells [2] (RLU of YK-202 / RLU of the named lipid), the “Multiples of values that equivalent to YK-202” value was found to be 399.37. In the data set on 293T cells [2] (RLU of YK-209 / RLU of the named lipid), the “Multiples of values that equivalent to YK-209” value amounted to 280.74. The “Ratio relative to SM-102” value with 293T cells [2] (RLU of the named lipid / RLU of SM-102, times that of SM-102) is reported as 0.05. Moreover, in data set [3], the Drug loading concentration came to 37.51 µg/mL, the Encapsulation rate was determined as 98.3% and the “Total RNA concentration” value is 38.16 µg/mL. In data set [4], this compound returned a PDI of 25.8% and a Particle size of 211 nm.

The record behind these values is patent US20260007601A1, “IONIZABLE CATIONIC LIPID COMPOUND AND COMPOSITION FOR DELIVERING NUCLEIC ACID AND USE THEREOF” (BEIJING YOUCAREKECHUANG PHARMACEUTICAL TECHNOLOGY CO., LTD., priority 2023, published 2026).
